# Test results: patent EP4623908A1, “USE OF (-)-EPIGALLOCATECHIN GALLATE COMPOUND” (CF Pharmtech, Inc., priority 2022, dated 2024)
# Tests used:
# [1] = Drug concentration in rat plasma and lungs after tracheal nebulization and oral gavage (Example 2); type: in vivo, rats; conditions: for Cmax / AUC(0-t): plasma; for AUC(0-t): read-out: Plasma AUC0-t
# Description: As shown in Example 1, after inhalation (such as tracheal nebulization) administration of 1.6 mg/kg EGCG and oral gavage administration of 60 mg/kg EGCG, the AUC0-t in rat plasma were similar. Based on this, this example investigates the changes in drug concentration in rat plasma and lungs over time after a single lower dose of tracheal nebulization (0.8 mg/kg) compared to oral gavage (60 mg/kg) of EGCG. Both the tracheal nebulization and oral gavage groups consist of 5 rats each.
# 2.1 Blood Sampling Method: Blood was taken via femoral artery. Samples were taken at 30 minutes, 2 hours, 4 hours, and 6 hours post-administration (4 sampling points). After blood collection, 0.9 wt% physiological saline was used to lavage the lungs twice, then the entire lung was removed, dried with filter paper, and stored at -20°C until further analysis.
# 2.2 Plasma Sample Processing Method: 1 mL of plasma was mixed with 3 mL of ethyl acetate solution, vortexed, centrifuged, and the supernatant was evaporated to dryness. The residue was reconstituted with a reconstitution solution, vortexed, and 100 µL was used for analysis of plasma drug concentration.
# 2.3 Lung Tissue Sample Processing Method: Lung tissue samples were weighed, and 3 times the volume of physiological saline (w:v) was added to homogenize. 1 mL of the homogenate was mixed with 3 mL of ethyl acetate solution, vortexed, centrifuged, and the supernatant was evaporated to dryness. The residue was reconstituted with a reconstitution solution, vortexed, and 100 µL was used for analysis of lung drug concentration.
# [2] = Plasma pharmacokinetics in rats after tracheal nebulization, intravenous injection and oral gavage (Example 1); type: in vivo, SD rats; conditions: for AUC(0-t) / Cmax: male, Sprague-Dawley; for AUC(0-t) / Cmax / F: rat plasma
# Source text: Example 1: Plasma pharmacokinetics study in rats after administration of EGCG via tracheal nebulization, intravenous injection, and oral gavage.
# Materials: EGCG, content > 98wt%.
# Preparation of tracheal nebulization solution: Accurately weigh the EGCG compound and dissolve it in Solvent 1 to prepare a clear and transparent drug solution. Solvent 1 is composed of purified water, citric acid, and sodium citrate.
# Preparation of intravenous injection and oral gavage solutions: Accurately weigh the EGCG compound and dissolve it in saline.
# Animals: Clean-grade male SD rats, provided by Qinglongshan Animal Breeding Farm in Jiangning District, Nanjing City, with a body weight range of 160-200g.
# Tracheal Nebulization (inh): Rats in each tracheal nebulization group were anesthetized with isoflurane and fixed in a restraint device. An anesthetic laryngoscope was used to press the animal's tongue root and expose the glottis. A micro liquid nebulizer needle (blunt tip) filled with a specific amount of EGCG solution, was gently inserted into the trachea. The drug was nebulized into the lungs, the needle was quickly withdrawn, and the rat was removed from the holder, with its head rotated left and right to ensure even distribution of the drug across the lung lobes. The nebulized inhalation doses were 1.6 mg/kg, 3.2 mg/kg, and 6.4 mg/kg, with 5 rats in each dose group.
# Oral Gavage (po): The dosage for each rat was determined based on body weight. An appropriate size syringe and gavage tube were used to administer the drug orally. The dose was 60 mg/kg, with 5 rats.
# Intravenous Injection (iv): EGCG was administered via tail vein injection. The dose was 3.2 mg/kg, with 5 rats in total.
# Blood samples were collected from the experimental groups via the orbital venous plexus before administration (0 min) and at 5 min, 15 min, 30 min, 1 h, 2 h, 4 h, and 6 h after administration (8 sampling points in total), with approximately 50-100 µL of whole blood collected at each point.
# After collection at the specified time points, blood samples were placed in heparinized tubes, centrifuged, and plasma was separated into centrifuge tubes, then stored at -70°C for subsequent analysis.
# Mass spectrometry conditions: Determined using UPLC-MS/MS. Chromatographic conditions: Determined using. Pharmacokinetic parameters were calculated using the WinNonlin pharmacokinetic software with statistical moment methods for each animal.
# [3] = biological target: T1, lysyl oxidase-like protein-2 (LOXL2) (Homo sapiens, UniProt Q9Y4K0); conditions: cited from earlier work
# T1 sequence (Q9Y4K0 26-774): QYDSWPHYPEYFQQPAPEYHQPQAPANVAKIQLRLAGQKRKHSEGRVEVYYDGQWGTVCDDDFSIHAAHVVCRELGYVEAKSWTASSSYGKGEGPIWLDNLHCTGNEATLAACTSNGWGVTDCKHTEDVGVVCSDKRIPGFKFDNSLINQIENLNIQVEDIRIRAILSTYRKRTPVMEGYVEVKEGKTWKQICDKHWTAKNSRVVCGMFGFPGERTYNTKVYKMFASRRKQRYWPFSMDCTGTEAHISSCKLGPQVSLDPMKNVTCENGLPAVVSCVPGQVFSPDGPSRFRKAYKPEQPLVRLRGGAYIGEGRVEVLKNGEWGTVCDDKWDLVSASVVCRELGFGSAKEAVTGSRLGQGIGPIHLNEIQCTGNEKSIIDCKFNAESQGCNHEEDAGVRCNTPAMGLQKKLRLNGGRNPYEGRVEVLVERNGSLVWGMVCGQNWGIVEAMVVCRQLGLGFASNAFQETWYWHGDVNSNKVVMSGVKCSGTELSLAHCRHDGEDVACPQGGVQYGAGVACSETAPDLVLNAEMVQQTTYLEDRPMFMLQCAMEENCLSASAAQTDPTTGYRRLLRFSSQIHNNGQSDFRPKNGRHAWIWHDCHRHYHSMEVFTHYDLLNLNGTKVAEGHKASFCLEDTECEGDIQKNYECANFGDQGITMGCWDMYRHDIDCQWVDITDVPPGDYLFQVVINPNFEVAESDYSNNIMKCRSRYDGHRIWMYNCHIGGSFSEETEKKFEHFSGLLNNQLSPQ
# [4] = inhaled, tracheal nebulization (inh.0.8mg/kg)
# [5] = tracheal nebulization (inh.0.8mg/kg)
# [6] = inhaled, tracheal nebulization (inh) 1.6 mg/kg
# [7] = inhaled, tracheal nebulization (inh) 3.2 mg/kg
# [8] = inhaled, tracheal nebulization (inh) 6.4 mg/kg
# [9] = intravenous injection (iv) 3.2 mg/kg
compound,measurement,setting,value
"O=C(O[C@@H]1Cc2c(O)cc(O)cc2O[C@@H]1c1cc(O)c(O)c(O)c1)c1cc(O)c(O)c(O)c1 [EGCG, (-)-Epigallocatechin gallate]",Kp,"[1]; lung and plasma, inhaled, after inhalation 0.8 mg/kg, read-out: drug concentration in the lungs relative to that in plasma (higher)",100
same,Lung AUC0-t,[1]; oral gavage (po. 60mg/kg),115 ng·h/mL
same,Lung Cmax,[1]; oral gavage (po. 60mg/kg),34.5 ng/mL
same,Cmax,[1]; [4],153 ng/mL
same,AUC(0-t),[1]; [4],292 ng·h/mL
same,Cmax,[1]; oral gavage (po. 60mg/kg),46 ng/mL
same,AUC(0-t),[1]; oral gavage (po. 60mg/kg),136 ng·h/mL
same,Lung AUC0-t,[1]; [5],30891 ng·h/mL
same,Lung Cmax,[1]; [5],12720 ng/mL
same,AUC(0-t),[2]; [6],409 ± 75.6 ng·h/mL
same,Cmax,[2]; [6],298 ± 91.9 ng/mL
same,AUC(0-t),[2]; [7],1120 ± 220 ng·h/mL
same,Cmax,[2]; [7],1120 ± 127 ng/mL
same,AUC(0-t),[2]; [8],1860 ± 595 ng·h/mL
same,Cmax,[2]; [8],2020 ± 658 ng/mL
same,AUC(0-t),[2]; [9],1680 ± 614 ng·h/mL
same,Cmax,[2]; [9],1920 ± 789 ng/mL
same,AUC(0-t),[2]; oral gavage (po) 60 mg/kg,372 ± 167 ng·h/mL
same,Cmax,[2]; oral gavage (po) 60 mg/kg,118 ± 73 ng/mL
same,dose ratio between oral gavage and inhalation when achieving the same plasma exposure level,"[2]; po 60 mg/kg: inh 1.6 mg/kg, rat",37.5 times
same,F,[2]; oral gavage (po) 60 mg/kg,1.2±0.0%
same,F,[2]; tracheal nebulization (inh) 1.6 mg/kg,48.7±9.0%
same,F,[2]; tracheal nebulization (inh) 3.2 mg/kg,66.9±13.1%
same,F,[2]; tracheal nebulization (inh) 6.4 mg/kg,55.3±17.7%
same,inhibition of LOXL2,[3],effectively inhibit
